Results reported in publication PMC4886613 (Journal of natural products, 2009).

Legend:
Assay type in all cases: cell-based
[1] = system: culture of Leishmania donovani; experiment: in vitro antileishmanial activity; settings: in words
[2] = system: Candida albicans ATCC 90028; experiment: in vitro antifungal activity, Candida albicans; settings: ATCC90028, read-out: antifungal C. albicans IC50
Plasmodium falciparum = experiment: antimalarial activity; settings: in words; clone not specified
P. falciparum (W2 clone) = experiment: microbe, parasite or virus in culture; settings: Plasmodium falciparum, W2, read-out: antimalarial P. falciparum W2 (IC50)
[3] = system: Plasmodium falciparum (D6 clone); experiment: in vitro antimalarial activity, D6 clone; settings: D6, read-out: antimalarial P. falciparum D6 (IC50)

Compound	antileishmanial activity [1]	antimalarial activities (Plasmodium falciparum)	also measured
C=C(C)C(O)CCC1(C)C=Cc2c(O)cc(CCCCC)cc2O1 (racemic) [Compound 2, (±)-3″-hydroxy-Δ^(4″,5″)-cannabichromene]	moderate antileishmanial activity	–	–
C[C@@H]1[C@H](O)[C@@H](C)/C=C/C=C/C=C/C=C/C=C/C=C/C=C/[C@H](O[C@@H]2O[C@H](C)[C@@H](O)[C@H](N)[C@@H]2O)C[C@@H]2O[C@](O)(C[C@@H](O)C[C@@H](O)[C@H](O)CC[C@@H](O)C[C@@H](O)CC(=O)O[C@H]1C)C[C@H](O)[C@H]2C(=O)O [amphotericin B]	–	–	IC50 [2]: 300 nM
CCCCCc1cc(O)c(C/C=C(\C)CCC=C(C)C)c(OC(C)=O)c1O [Compound 5, 5-acetyl-4-hydroxycannabigerol]	strong antileishmanial activity	mild antimalarial activities	–
CCCCCc1cc(O)c2c(c1OC(C)=O)OC(C)(CCC=C(C)C)C=C2 (racemic) [Compound 1, (±)-4-acetoxycannabichromene]	moderate antileishmanial activity	mild antimalarial activities	–
CCN(CC)CCCC(C)Nc1ccnc2cc(Cl)ccc12 (stereo not drawn) [chloroquine]	–	–	IC50 (P. falciparum (W2 clone)): 500 nM; IC50 [3]: 100 nM
CCCCCc1c(C/C=C(\C)CCC=C(C)C)c(O)cc(O)c1OC(C)=O [Compound 6, 4-acetoxy-2-geranyl-5-hydroxy-3-n-pentylphenol]	moderate antileishmanial activity	–	–
